Test results from PubChem BioAssay (NCI).
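Dose response: 5 concentrations. Exposure: 48 h. Format: 96-well plates. Endpoint: linear interpolation; highest concentration if not reached. TGI: concentration producing complete growth inhibition.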

Experiments:
Experiment in all cases: NCI-60 cell line screen, 48 h
786-0 renal = tested on: 786-0 renal
A498 renal = tested on: A498 renal
A549 NSCLC = tested on: A549 NSCLC
ACHN renal = tested on: ACHN renal
BT-549 breast = tested on: BT-549 breast
CAKI-1 renal = tested on: CAKI-1 renal
CCRF-CEM leukemia = tested on: CCRF-CEM leukemia
COLO 205 colon = tested on: COLO 205 colon
DU-145 prostate = tested on: DU-145 prostate
EKVX NSCLC = tested on: EKVX NSCLC
HCC-2998 colon = tested on: HCC-2998 colon
HCT-116 colon = tested on: HCT-116 colon
HCT-15 colon = tested on: HCT-15 colon
HL-60(TB) leukemia = tested on: HL-60(TB) leukemia
HOP-62 NSCLC = tested on: HOP-62 NSCLC
HOP-92 NSCLC = tested on: HOP-92 NSCLC
HS 578T breast = tested on: HS 578T breast
HT29 colon = tested on: HT29 colon
IGROV1 ovarian = tested on: IGROV1 ovarian
K-562 leukemia = tested on: K-562 leukemia
KM12 colon = tested on: KM12 colon
LOX IMVI melanoma = tested on: LOX IMVI melanoma
M14 melanoma = tested on: M14 melanoma
MALME-3M melanoma = tested on: MALME-3M melanoma
MCF7 breast = tested on: MCF7 breast
MDA-MB-231 breast = tested on: MDA-MB-231 breast
MDA-MB-435 = tested on: MDA-MB-435
MOLT-4 leukemia = tested on: MOLT-4 leukemia
NCI-H226 lung = tested on: NCI-H226 lung
NCI-H23 lung = tested on: NCI-H23 lung
NCI-H460 lung = tested on: NCI-H460 lung
NCI-H522 lung = tested on: NCI-H522 lung
NCI/ADR-RES ovarian = tested on: NCI/ADR-RES ovarian
OVCAR-3 ovarian = tested on: OVCAR-3 ovarian
OVCAR-4 ovarian = tested on: OVCAR-4 ovarian
OVCAR-5 ovarian = tested on: OVCAR-5 ovarian
OVCAR-8 ovarian = tested on: OVCAR-8 ovarian
PC-3 prostate = tested on: PC-3 prostate
RPMI-8226 leukemia = tested on: RPMI-8226 leukemia
SF-268 CNS = tested on: SF-268 CNS
SF-295 CNS = tested on: SF-295 CNS
SF-539 CNS = tested on: SF-539 CNS
SK-MEL-2 melanoma = tested on: SK-MEL-2 melanoma
SK-MEL-28 melanoma = tested on: SK-MEL-28 melanoma
SK-MEL-5 melanoma = tested on: SK-MEL-5 melanoma
SK-OV-3 ovarian = tested on: SK-OV-3 ovarian
SN12C renal = tested on: SN12C renal
SNB-19 CNS = tested on: SNB-19 CNS
SNB-75 CNS = tested on: SNB-75 CNS
SR leukemia = tested on: SR leukemia
SW-620 colon = tested on: SW-620 colon
T-47D breast = tested on: T-47D breast
U251 CNS = tested on: U251 CNS
UACC-257 melanoma = tested on: UACC-257 melanoma
UACC-62 melanoma = tested on: UACC-62 melanoma
UO-31 renal = tested on: UO-31 renal

Measured: TGI

COc1cc(/C=C/C(=O)CC(=O)/C=C/c2cc(C)c(O)c(OC)c2)cc(C)c1O
> 100 µM: 786-0 renal | A498 renal | A549 NSCLC | ACHN renal | BT-549 breast | CAKI-1 renal | CCRF-CEM leukemia | COLO 205 colon | DU-145 prostate | EKVX NSCLC | HCC-2998 colon | HCT-116 colon | HCT-15 colon | HL-60(TB) leukemia | HOP-62 NSCLC | HOP-92 NSCLC | HS 578T breast | HT29 colon | IGROV1 ovarian | K-562 leukemia | KM12 colon | LOX IMVI melanoma | M14 melanoma | MALME-3M melanoma | MCF7 breast | MDA-MB-231 breast | MDA-MB-435 | MOLT-4 leukemia | NCI-H226 lung | NCI-H23 lung | NCI-H460 lung | NCI-H522 lung | NCI/ADR-RES ovarian | OVCAR-3 ovarian | OVCAR-4 ovarian | OVCAR-5 ovarian | OVCAR-8 ovarian | PC-3 prostate | RPMI-8226 leukemia | SF-268 CNS | SF-295 CNS | SF-539 CNS | SK-MEL-2 melanoma | SK-MEL-28 melanoma | SK-MEL-5 melanoma | SK-OV-3 ovarian | SN12C renal | SNB-19 CNS | SNB-75 CNS | SR leukemia | SW-620 colon | T-47D breast | U251 CNS | UACC-257 melanoma | UACC-62 melanoma | UO-31 renal
